The values that follow come from publication PMC6940912, “Novel Drug-Like Somatostatin Receptor 4 Agonists are Potential Analgesics for Neuropathic Pain” (International Journal of Molecular Sciences, 2019).

For orientation: EC50 means the concentration giving half of the maximal effect. Low values mean an effect from little substance, high ones a need for much substance.

One assay deals with T1, sst4 receptor (Homo sapiens, UniProt P31391).
T1 construct: expressed in transfected cells; host or cells: CHO cells
As to the kind of experiment: sst4 receptor-linked G-protein activation, [35S]GTPγS binding assay on membranes of sst4-expressing CHO cells. The class given is biochemical. As for the experimental part:
Membrane fractions were prepared from CHO cells, which express the sst4 receptor, in Tris–ethylene glycol-bis(2-aminoethyl)tetraacetic acid (Tris–EGTA) buffer (50 mM Tris–HCl (Sigma, St. Louis, MO, USA), 1 mM EGTA (Sigma, St. Louis, MO, USA), 3 mM MgCl2 (Sigma, St. Louis, MO, USA), 100 mM NaCl (Sigma, St. Louis, MO, USA), pH 7.4, 10 μg of protein/sample). The fractions were incubated in the buffer containing 0.05 nM guanosine triphosphate (GTP) (BioChemica International Inc., Melbourne, Florida, USA), labeled on the gamma phosphate group with ^35S ([^35S]GTPγS) (Isotop Institute, Budapest, Hungary) and increasing concentrations (1 nM to 10 µM) of C1, C2, C3 and C4 compounds for 60 min at 30 °C, in the presence of 30 μM guanosine diphosphate (GDP) (Sigma, St. Louis, MO, USA). We determined the nonspecific binding in the presence of 10 μM unlabeled GTPγS and total binding in the absence of test compounds. Samples were filtrated through Whatman GF/B glass fiber filters using 48-well Slot Blot Manifold from Cleaver Scientific (Cleaver Scientific Ltd., Rugby, Warwickshire, United Kingdom). Filters were washed with ice-cold 50 mM Tris–HCl buffer (pH 7.4) and radioactivity was measured in a β-counter (PerkinElmer Inc., Waltham, MA, USA). The test-compound-induced G-protein activation was given as percentage over the specific [^35S]GTPγS binding detected in the absence of agonists.
In the sst4 receptor activation assay, all the compounds were dissolved in dimethyl sulfoxide (DMSO) (Szkarabeusz Ltd., Pécs, Hungary). The concentration of the stock solutions was 10 mM and was diluted with distilled water to reach the final concentrations. For the in vivo experiments, 1 mg of the compounds was rubbed dry in a braying mortar, suspended thoroughly in 1 mL 1.25% methylcellulose (MC) (Pharmacy of University of Pécs, Pécs, Hungary) solution and then dissolved in sterile bidistilled water to get a 1000 µg/mL stock solution freshly every experimental day. Most microsuspensions looked opalescent; they were shaken properly, sonicated, and further diluted with 1.25% MC to obtain the 25 µg/mL solution for oral administrations (0.2 mL/10 g body weight for the 500 µg/kg dose). The solutions were shaken and sonicated again directly before use. The vehicle was always 1.25% MC dissolved in sterile bidistilled water.

The target of another assay is T2, PDE4D2 (Homo sapiens, UniProt Q08499).
T2 construct: Eurofins Cerep (contract assay)
The assay is described as follows: Selectivity profile (Eurofins Cerep), enzyme inhibition. The format is biochemical. The settings on record: % inhibition of control enzyme activity, read-out: Enzymatic Activity (%). As to the method:
(§1) The evaluation was performed by Eurofins Cerep (France). Compound binding was calculated as a % inhibition of the binding of a radioactively labeled ligand specific for each target. Enzyme inhibition effect was calculated as a % inhibition of control enzyme activity. Cellular agonist effect was calculated as a % of control response to a known reference agonist for each target, and cellular antagonist effect was calculated as a % inhibition of control reference agonist response for each target. In each experiment the respective reference compound was tested concurrently with Compound 1 [71, 72, 73, 74, 75, 76, 77, 78]. See in Supplementary Materials.

The next assay concerns the target T3, MAOA (Homo sapiens, UniProt P21397).
T3 construct: Eurofins Cerep (contract assay)
T3 sequence (P21397 1-527): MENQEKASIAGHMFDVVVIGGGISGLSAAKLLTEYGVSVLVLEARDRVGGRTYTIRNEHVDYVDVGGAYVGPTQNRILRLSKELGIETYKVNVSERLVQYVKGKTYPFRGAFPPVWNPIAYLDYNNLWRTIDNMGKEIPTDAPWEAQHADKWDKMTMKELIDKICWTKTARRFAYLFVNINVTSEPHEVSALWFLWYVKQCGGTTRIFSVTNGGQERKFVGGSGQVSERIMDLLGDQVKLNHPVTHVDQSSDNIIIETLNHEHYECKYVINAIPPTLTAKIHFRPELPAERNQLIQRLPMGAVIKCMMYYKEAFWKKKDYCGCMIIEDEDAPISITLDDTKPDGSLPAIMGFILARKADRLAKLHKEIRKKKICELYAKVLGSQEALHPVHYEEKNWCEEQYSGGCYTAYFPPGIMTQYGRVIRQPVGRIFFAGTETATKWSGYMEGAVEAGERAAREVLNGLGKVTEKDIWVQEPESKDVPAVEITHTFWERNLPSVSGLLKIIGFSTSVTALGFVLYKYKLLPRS
The assay is described as above. The settings on record: % inhibition of control enzyme activity, read-out: Enzymatic Activity (%). The class given is biochemical. As for the experimental part:
as §1

Another assay deals with T4, PDE3A (Homo sapiens, UniProt Q14432).
T4 construct: Eurofins Cerep (contract assay)
Described as above. The class given is biochemical. The settings on record: % inhibition of control enzyme activity, read-out: Enzymatic Activity (%). As to the method: as §1

For another assay, the target named is T5, COX-2 (Homo sapiens, UniProt P35354).
T5 construct: Eurofins Cerep (contract assay)
T5 sequence (P35354 18-604): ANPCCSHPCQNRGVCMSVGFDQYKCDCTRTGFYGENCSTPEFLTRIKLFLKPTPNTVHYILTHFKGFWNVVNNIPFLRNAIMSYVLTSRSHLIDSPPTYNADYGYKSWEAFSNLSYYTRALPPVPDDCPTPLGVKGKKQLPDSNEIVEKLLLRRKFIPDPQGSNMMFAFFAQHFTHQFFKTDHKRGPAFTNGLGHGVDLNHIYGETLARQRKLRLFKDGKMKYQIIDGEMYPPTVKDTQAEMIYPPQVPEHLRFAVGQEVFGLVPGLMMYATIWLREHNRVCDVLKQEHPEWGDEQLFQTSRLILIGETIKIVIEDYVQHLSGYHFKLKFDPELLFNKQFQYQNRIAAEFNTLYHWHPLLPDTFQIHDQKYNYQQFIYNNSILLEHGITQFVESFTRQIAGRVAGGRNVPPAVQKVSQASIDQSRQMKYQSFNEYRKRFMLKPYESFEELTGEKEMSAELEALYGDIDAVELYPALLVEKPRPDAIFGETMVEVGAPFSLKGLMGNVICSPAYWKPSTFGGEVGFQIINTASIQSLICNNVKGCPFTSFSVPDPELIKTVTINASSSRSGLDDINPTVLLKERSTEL
The assay is described as above. The class given is biochemical. The settings on record: % inhibition of control enzyme activity, read-out: Enzymatic Activity (%). As to the method: as §1

The target in another assay is T6, CB2 (Homo sapiens, UniProt P34972).
T6 construct: Eurofins Cerep (contract assay)
The assay is described as follows: Selectivity profile (Eurofins Cerep), cellular agonist/antagonist effect. The format is cell-based. Particulars: 1 µM. As to the method:
as §1

A further assay deals with T7, CB1 (Homo sapiens, UniProt P21554).
T7 construct: Eurofins Cerep (contract assay)
Described as above. The format is cell-based. The settings on record: 1 µM. As for the experimental part: as §1

A further assay has as its target T8, D2S (Homo sapiens, UniProt P14416).
T8 construct: Eurofins Cerep (contract assay)
The description is as above. The settings on record: 1 µM. The class given is cell-based. As to the method:
as §1

The target in the next assay is T9, Kappa (KOP) (Homo sapiens, UniProt P41145).
T9 construct: Eurofins Cerep (contract assay)
The assay is described as above. The format is cell-based. The settings on record: 1 µM. As to the method:
as §1

[1] abbreviates: % inhibition of control reference agonist response.
Where [2] appears, read: % of control response to reference agonist.

Molecules are shown by their SMILES.

T7 sequence (P21554 whole entry): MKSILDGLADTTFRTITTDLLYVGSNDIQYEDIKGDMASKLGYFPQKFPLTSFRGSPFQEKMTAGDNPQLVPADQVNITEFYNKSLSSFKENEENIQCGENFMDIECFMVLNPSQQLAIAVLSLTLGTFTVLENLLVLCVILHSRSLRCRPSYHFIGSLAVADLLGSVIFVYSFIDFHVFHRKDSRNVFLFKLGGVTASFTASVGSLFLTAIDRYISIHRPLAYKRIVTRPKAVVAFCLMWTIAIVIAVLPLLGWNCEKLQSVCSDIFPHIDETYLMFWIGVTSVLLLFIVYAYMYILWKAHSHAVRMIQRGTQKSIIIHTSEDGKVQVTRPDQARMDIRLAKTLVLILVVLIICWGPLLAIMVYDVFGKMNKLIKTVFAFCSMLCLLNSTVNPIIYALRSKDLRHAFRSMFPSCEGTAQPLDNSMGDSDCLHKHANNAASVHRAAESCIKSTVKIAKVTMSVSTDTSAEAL
T9 sequence (P41145 whole entry): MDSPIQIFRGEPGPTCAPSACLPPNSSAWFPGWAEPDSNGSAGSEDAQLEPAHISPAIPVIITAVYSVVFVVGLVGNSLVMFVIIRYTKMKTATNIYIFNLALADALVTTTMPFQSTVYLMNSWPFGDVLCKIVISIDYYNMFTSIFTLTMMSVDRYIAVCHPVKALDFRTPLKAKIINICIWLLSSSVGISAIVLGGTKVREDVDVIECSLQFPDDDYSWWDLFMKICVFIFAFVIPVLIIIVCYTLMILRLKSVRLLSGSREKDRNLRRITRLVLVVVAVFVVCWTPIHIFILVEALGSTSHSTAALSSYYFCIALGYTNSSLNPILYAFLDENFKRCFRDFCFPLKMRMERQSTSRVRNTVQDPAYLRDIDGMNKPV
T1 sequence (P31391 whole entry): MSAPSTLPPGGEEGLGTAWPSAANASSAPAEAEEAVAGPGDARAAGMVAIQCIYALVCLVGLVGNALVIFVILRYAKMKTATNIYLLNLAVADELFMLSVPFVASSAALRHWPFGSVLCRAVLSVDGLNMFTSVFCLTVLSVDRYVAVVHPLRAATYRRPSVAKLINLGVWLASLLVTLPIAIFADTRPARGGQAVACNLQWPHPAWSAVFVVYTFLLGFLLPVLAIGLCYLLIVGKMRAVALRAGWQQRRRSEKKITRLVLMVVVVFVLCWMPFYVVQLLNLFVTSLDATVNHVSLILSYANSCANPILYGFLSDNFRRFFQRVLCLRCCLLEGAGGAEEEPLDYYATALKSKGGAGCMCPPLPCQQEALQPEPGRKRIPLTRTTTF
T6 sequence (P34972 whole entry): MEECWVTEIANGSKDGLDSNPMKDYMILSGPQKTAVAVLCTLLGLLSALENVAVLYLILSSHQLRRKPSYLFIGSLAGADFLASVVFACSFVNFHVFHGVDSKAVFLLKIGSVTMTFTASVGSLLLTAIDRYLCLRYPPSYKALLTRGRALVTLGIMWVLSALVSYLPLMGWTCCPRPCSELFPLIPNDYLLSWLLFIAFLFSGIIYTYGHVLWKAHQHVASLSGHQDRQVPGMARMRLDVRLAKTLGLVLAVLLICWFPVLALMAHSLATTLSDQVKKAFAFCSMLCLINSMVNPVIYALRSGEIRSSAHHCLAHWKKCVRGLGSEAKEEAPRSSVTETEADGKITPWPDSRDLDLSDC
T8 sequence (P14416 1-414 isoform P14416-2): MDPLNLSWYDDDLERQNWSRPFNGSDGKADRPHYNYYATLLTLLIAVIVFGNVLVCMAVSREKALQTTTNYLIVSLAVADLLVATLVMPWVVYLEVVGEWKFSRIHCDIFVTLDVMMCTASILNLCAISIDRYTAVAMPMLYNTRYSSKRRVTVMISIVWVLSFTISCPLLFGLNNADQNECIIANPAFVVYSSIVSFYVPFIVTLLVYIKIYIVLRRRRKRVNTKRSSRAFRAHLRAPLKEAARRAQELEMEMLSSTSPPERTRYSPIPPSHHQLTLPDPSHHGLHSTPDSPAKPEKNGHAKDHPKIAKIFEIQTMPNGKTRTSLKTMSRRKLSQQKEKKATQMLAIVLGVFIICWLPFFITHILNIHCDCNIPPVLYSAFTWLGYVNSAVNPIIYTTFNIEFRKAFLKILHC
T4 sequence (Q14432 whole entry, species assumed): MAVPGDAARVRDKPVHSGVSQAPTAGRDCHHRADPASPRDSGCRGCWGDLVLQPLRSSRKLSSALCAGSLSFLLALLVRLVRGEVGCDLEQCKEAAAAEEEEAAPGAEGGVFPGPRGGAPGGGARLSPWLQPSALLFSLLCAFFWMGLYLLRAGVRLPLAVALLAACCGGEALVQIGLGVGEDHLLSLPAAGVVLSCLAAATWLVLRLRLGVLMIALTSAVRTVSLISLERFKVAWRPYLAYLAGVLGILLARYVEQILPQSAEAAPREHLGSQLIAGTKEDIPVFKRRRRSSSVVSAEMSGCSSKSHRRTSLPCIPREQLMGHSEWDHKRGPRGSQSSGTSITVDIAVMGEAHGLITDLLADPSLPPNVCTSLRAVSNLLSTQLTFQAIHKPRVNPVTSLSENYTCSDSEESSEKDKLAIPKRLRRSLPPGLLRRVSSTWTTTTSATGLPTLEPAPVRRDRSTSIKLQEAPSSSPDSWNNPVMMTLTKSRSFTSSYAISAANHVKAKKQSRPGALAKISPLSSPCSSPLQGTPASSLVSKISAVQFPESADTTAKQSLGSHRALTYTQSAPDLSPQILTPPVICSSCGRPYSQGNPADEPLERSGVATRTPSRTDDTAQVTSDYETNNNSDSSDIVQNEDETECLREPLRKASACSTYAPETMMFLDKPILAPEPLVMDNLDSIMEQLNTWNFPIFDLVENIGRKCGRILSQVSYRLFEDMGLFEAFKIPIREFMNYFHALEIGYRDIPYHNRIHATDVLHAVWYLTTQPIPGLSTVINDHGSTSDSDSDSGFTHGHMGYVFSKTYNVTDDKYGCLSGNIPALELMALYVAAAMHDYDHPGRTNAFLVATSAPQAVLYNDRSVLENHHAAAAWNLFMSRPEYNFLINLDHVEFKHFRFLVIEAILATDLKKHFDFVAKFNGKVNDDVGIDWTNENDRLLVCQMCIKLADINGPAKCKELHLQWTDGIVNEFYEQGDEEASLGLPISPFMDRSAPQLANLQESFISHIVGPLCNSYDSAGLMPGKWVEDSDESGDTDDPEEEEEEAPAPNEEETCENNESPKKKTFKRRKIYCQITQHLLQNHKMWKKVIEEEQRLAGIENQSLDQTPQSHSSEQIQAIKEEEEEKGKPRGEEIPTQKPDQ
T2 sequence (Q08499 303-809 limits assumed): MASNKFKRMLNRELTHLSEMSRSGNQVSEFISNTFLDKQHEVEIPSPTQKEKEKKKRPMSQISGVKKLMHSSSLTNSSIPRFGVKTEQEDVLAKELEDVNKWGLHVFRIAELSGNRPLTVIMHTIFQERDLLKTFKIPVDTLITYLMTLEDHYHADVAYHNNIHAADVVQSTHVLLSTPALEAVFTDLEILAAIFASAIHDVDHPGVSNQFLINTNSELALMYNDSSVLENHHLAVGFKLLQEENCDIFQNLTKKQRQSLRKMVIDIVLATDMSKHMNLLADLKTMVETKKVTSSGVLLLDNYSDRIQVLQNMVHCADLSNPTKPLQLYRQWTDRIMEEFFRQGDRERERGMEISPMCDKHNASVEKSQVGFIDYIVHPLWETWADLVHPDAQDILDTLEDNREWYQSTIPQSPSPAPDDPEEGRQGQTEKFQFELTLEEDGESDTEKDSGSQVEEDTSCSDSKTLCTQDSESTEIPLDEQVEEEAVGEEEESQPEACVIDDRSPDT

On sst4 receptor (1 nM to 10 µM, n = 3), `c1ccc(CCNc2ncnc3c2ccn3Cc2ccccc2)cc1` [Compound 1, (7-Benzyl-7H-pyrrolo[2,3-d]pyrimidin-4-yl)-phenethyl-amine] registered an EC50 of 37 nM. For the same molecule, the Emax on sst4 receptor ([35S]GTPγS binding, mean ± SEM, n = 3, read-out: Maximal activation over the basal activity of the receptor (efficacy)) stood at 218%. The inhibition at 1 µM was -0.6% at PDE4D2, 2.7% on MAOA, -15% on PDE3A and -10.4% on COX-2. Further, the “Antagonist Effect (%)” value on CB2 (setting [1]) is listed as 7.7%; at CB1 (setting [1]), −1.5%; on D2S (setting [1]), −11.5%; at Kappa (KOP) (setting [1]), 23.6%. Moreover, the “Agonist Effect (%)” value at CB2 (setting [2]) is on record as 58.9%; at CB1 (setting [2]), 30.8%; on D2S (setting [2]), 17.2%; at Kappa (KOP) (setting [2]) it was −1.5%.
